# Data as given in article PMC4278708, “A Convenient Method for the Synthesis of (Prop-2-Ynyloxy)Benzene Derivatives via Reaction with Propargyl Bromide, Their Optimization, Scope and Biological Evaluation” (PLoS ONE, 2014).
# Like-named read-outs stand apart in the source and are kept apart here.
# Key:
# urease enzyme = urease enzyme (Canavalia ensiformis, UniProt P07374); experiment: biochemical; assay type: biochemical; conditions: for inhibition at 50 µg/mL: read-out: Percentage inhibition at 50 ug/mL; for inhibition at 100 µg/mL: read-out: Percentage inhibition at 100 ug/mL
# Chain of urease enzyme (P07374 whole entry, looked up): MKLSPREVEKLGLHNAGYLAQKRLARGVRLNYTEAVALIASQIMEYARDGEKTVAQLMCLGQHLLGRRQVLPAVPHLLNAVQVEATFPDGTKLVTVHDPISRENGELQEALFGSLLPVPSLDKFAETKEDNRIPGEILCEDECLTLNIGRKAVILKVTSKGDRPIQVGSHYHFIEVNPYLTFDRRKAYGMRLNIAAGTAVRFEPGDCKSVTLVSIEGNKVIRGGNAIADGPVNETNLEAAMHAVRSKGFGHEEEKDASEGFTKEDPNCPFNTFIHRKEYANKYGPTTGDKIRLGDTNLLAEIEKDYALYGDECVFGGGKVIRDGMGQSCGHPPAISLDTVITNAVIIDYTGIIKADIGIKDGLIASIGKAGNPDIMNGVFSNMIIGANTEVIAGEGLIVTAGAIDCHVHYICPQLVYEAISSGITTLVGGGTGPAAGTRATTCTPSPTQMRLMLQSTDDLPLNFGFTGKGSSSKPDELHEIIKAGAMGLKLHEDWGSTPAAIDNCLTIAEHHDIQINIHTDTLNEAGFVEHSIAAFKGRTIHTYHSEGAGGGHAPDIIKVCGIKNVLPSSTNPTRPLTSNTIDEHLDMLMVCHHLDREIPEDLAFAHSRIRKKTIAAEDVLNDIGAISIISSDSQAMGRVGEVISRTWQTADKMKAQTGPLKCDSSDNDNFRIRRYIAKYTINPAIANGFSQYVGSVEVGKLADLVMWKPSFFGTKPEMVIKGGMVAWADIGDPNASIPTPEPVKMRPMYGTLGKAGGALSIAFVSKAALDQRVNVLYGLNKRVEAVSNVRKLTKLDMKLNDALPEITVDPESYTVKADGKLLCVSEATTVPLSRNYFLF
# Description: Antiurease activity of the synthesized compounds was determined by using the modified phenol-hypochlorite method. Varying concentrations were used to prepare the urease inhibition curve of Thiourea (a known inhibitor of Urease) in the reaction mixture. Phosphate buffer solution of pH 7 containing 1 unit of enzyme was added about 200 µl in the test tube which was followed by the addition of 230 µl of phosphate buffer and 20 µl of thiourea from a scrupulous stock solution for the particular concentration of thiourea in the reaction mixture respectively. Test sample solutions were added instead of thiourea solution in case of test samples. The reaction mixture were mixed and incubated at 25°C for 5 min. 400 µl of urea stock (20 mM) was added in each test tube. In order to allow the action of urease on urea, all the test tubes were incubated at 40°C.
# Phenol hypochlorite reagent (1150 µl) was added after 10 min incubation at 40°C. Test tubes were again incubated at 56°C for 25 min. A blue coloured complex was formed in the reaction mixture. The samples were allowed to cool for 5 min and then their absorbance values were measured at 625 nm and the %age inhibition was calculated. Experiment was repeated three times to get the SD values.
# [1] = Nitric oxide (NO) scavenging activity (sodium nitropruside / Griess reagent); conditions: for IC50: NO scavenging; for Percentage scavenging activity at 50 ug/ml / Percentage scavenging activity at 100 ug/ml: NO
# Description: Solutions of known concentration were prepared by dissolving the synthesized compounds in appropriate solvents. A mixture of sample solution (20 µl), 10 mM sodium nitropruside solution (200 µl) and phosphate buffer of 7.4 pH (1780 µl) was taken in a dry test tube and the mixture was incubated at 37°C for 2 hours. 200 µl Griess reagent (0.3% Sulphanilic acid in glacial acetic acid, 0.1% Naphthyl ethylene diamine HCL (NED): Mixed equal volume of both solutions just before use) was added after the incubation period is over. After 20 min keeping the solution at room temperature, its absorbance at 528 nm was measured. Each sample was analyzed in triplicate. Positive control of any known antioxidant and control of all samples were run in parallel. Use of negative control was to calibrate the instrument. Sample blanks were also prepared in case if the samples were coloured. Correction in the absorbance values was made by subtracting the sample blank reading from the sample reading.
# Staphylococcus aureus = experiment: Antibacterial activity, disc diffusion method; assay type: cell-based; conditions: for inhibition at 40 µg/mL / inhibition at 100 µg/mL / IC50: Staphylococcus aureus; for inhibition at 40 µg/mL: read-out: Staphylococcus aureus 40 ug/ml (percentage inhibition); for inhibition at 100 µg/mL: read-out: Staphylococcus aureus 100 ug/ml (percentage inhibition)
# Text: (§1) Disc diffusion method was adopted to test the antibacterial activity of synthesized compounds 2a-10 against […] different bacterial strains. Ampiciline was used as positive control to check antibacterial activity of synthesized compounds. The bacterial strains employed were: Escherichia coli, Bacillus subtillus, Shigella flexneri, Staphylococcus aureus, Pseudomonas aeroginosa and Salmonella typhi.
# (§2) Disc diffusion method was used for the determination of antibacterial activity. synthetic organic compounds were examined to evaluate their antibacterial potential against four different strains of bacteria i.e. Staphlococcus aureus (Gram + ive), Pseudomonas- aeroginosa (Gram−ive) and Escherichia coli (Gram−ive), Bacillus subtilis (Gram + ive), Salmonella typhi (Gram−ive) and Shigella flexneri (−ive). The synthetic organic compounds were dissolved in an appropriate solvent to get the solution of known concentration (5 µg/µl or 10 µg/µl). In order to prepare discs of different potencies known volume of extract/synthetic organic compound solution was applied on the discs, air dried and used. After preparation of the sterilized nutrient agar and nutrient broth medium, the sterilized nutrient agar medium was poured under aseptic conditions into sterile glass petri dishes/plates. A known volume of bacterial growth culture can also be poured on the surface of agar medium solidified in petri dishes. After inoculation petri plates were kept at room temperature for 15–30 minutes so that the poured medium is adsorbed. All the discs, including test sample, +ive and –ve controls were placed onto the inoculated nutrient agar medium solidified in petri dishes with the help of sterile forceps and incubated the petri plates at 37°C±2°C for 16–24 hours. Zone of inhibition was measured in mm using ordinary scale. Experiment was repeated three times to get the SD values.
# Bacillus subtillus = experiment: Antibacterial activity, disc diffusion method; assay type: cell-based; conditions: for inhibition at 50 µg/mL / IC50 / inhibition at 100 µg/mL: Bacillus; for inhibition at 50 µg/mL: 50 ug/ml, read-out: Bacillus subtillus 50 ug/ml (percentage inhibition); for inhibition at 100 µg/mL: read-out: Bacillus subtillus 100 ug/ml (percentage inhibition)
# Text: as §1, §2
# [2] = read-out: Staphylococcus aureus IC50 ug/ml
# [3] = read-out: Bacillus subtillus IC50 ug/ml
Molecule,IC50 [1],Percentage scavenging activity at 50 ug/ml [1],Percentage scavenging activity at 100 ug/ml [1],inhibition at 40 µg/mL (Staphylococcus aureus),inhibition at 100 µg/mL (Staphylococcus aureus),inhibition at 50 µg/mL (Bacillus subtillus),IC50 (urease enzyme),inhibition at 50 µg/mL (urease enzyme),inhibition at 100 µg/mL (urease enzyme),IC50 (Staphylococcus aureus; [2]),activity against Bacillus subtillus (in words) (Bacillus subtillus),also measured
2-bromo-4-methyl-N-(prop-2-ynyl)aniline [Compound 8b],87.5 µg/mL,26.33±0.11%,57.98±0.21%,–,–,–,–,–,–,–,–,"IC50 (urease enzyme; urease): 98.2 µg/mL; Percentage inhibition at 50 ug/mL (urease enzyme; urease, 50 ug/mL): 27±0.45%; Percentage inhibition at 100 ug/mL (urease enzyme; urease, 100 ug/mL): 50.83±0.265%; Staphylococcus aureus 40 ug/ml (percentage inhibition) (Staphylococcus aureus; 40 ug/ml): 13.39±0.5%; Staphylococcus aureus 100 ug/ml (percentage inhibition) (Staphylococcus aureus; 100 ug/ml): 36±0.8%; Bacillus subtillus 100 ug/ml (percentage inhibition) (Bacillus subtillus; 100 ug/ml): 43.8±0.35%"
"CC1(C)S[C@@H]2[C@H](NC(=O)[C@H](N)c3ccccc3)C(=O)N2[C@H]1C(=O)O [Ampicilline, reference compound]",–,–,–,29.9 ± 0.59%,73 ± 0.51%,9.9 ± 0.51%,–,–,–,–,–,IC50 (Staphylococcus aureus; read-out: Staphylococcus aureus IC50): 76 µg/mL; IC50 (Bacillus subtillus; read-out: Bacillus subtillus IC50): 81 µg/mL
"C#CCOc1ccc(Br)cc1Cl [Compound 2a, 4-bromo-2-chloro-1-(prop-2-ynyloxy)benzene]",67.72 µg/mL,35.67±0.09%,76.09±0.12%,29.13 ± 0.12%,51 ± 0.5%,42.4 ± 0.35%,245 µM,42.5 ± 0.7%,82 ± 0.09%,97.7 µg/mL,inactive,melting point: 29 °C
"C#CCOc1ccc(Cl)cc1Br [Compound 2b, 2-bromo-4-chloro-1-(prop-2-ynyloxy)benzene]",67.9 µg/mL,39.67±0.09%,68.44±0.16%,31.47 ± 0.19%,56 ± 0.07%,40.37 ± 0.35%,264 µM,31.5 ± 0.22%,81.07 ± 0.1%,87.7 µg/mL,inactive,inhibition at 100 µg/mL (Bacillus subtillus; 100 ug/ml): 39.3 ± 0.36%
"C#CCOc1ccc(Br)cc1Br [Compound 2c, 2,4-dibromo-1-(prop-2-ynyloxy)benzene]",63.8 µg/mL,39.67±0.09%,77.03±0.11%,31.47 ± 0.2%,56 ± 0.1%,–,242 µM,36 ± 0.5%,86.45 ± 0.07%,87.7 µg/mL,batter activity,melting point: 157.95 °C; inhibition at 100 µg/mL (Bacillus subtillus; 100 ug/ml): 55.01 ± 0.25%; IC50 (Bacillus subtillus; [3]): 83.8 µg/mL
"C#CCOc1ccc(C)cc1Br [Compound 2d, 2-bromo-4-methyl-1-(prop-2-ynyloxy)benzene]",74.1 µg/mL,31.33±0.10%,69.95±0.15%,27.7 ± 0.35%,52 ± 0.607%,41.5 ± 0.3%,298 µM,30.3 ± 0.6%,85.89 ± 0.07%,95.9 µg/mL,potent antibacterial,IC50 (Bacillus subtillus; [3]): 79.9 µg/mL
"C#CCOc1ccc(F)cc1Br [Compound 2e, 2-bromo-4-fluoro-1-(prop-2-ynyloxy)benzene]",68.8 µg/mL,33.33±0.1%,77.5±0.11%,31.99 ± 0.07%,58 ± 0.9%,–,271 µM,40 ± 0.5%,79.59 ± 0.11%,85.1 µg/mL,inactive,–
